# Assay results reported in ChEMBL document CHEMBL3244164, “Synthesis and analgesic activity of 1,3-dihydro-3-(substituted phenyl)imidazo[4,5-b]pyridin-2-ones and 3-(substituted phenyl)-1,2,3-triazolo[4,5-b]pyridines” (J Med Chem, 1978).
# What was measured:
# Type in all cases: functional
# Rattus norvegicus [1] = assay: Analgesic activity in Sprague-Dawley rat normal foot assessed as response threshold at 32 mg/kg, po
# Rattus norvegicus [2] = assay: Analgesic activity in Sprague-Dawley rat brewer's yeast treated foot assessed as response threshold at 8 to 16 mg/kg, po; conditions: dose mg/kg 8-16
# Rattus norvegicus [3] = assay: Analgesic activity in Sprague-Dawley rat brewer's yeast treated foot assessed as response threshold at 16 to 32 mg/kg, po; conditions: dose mg/kg 16-32
# Rattus norvegicus [4] = assay: Analgesic activity in Sprague-Dawley rat brewer's yeast treated foot assessed as response threshold at 32 mg/kg, po
Structure (SMILES),Activity (Rattus norvegicus [1]) [mm],Activity (Rattus norvegicus [2]) [mm],Activity (Rattus norvegicus [3]) [mm],Activity (Rattus norvegicus [4]) [mm]
Fc1ccccc1-n1nnc2cccnc21,<40,>25,,
CC(C)Cn1c(=O)n(-c2ccc3c(c2)OCO3)c2ncccc21,<40,,>25,
CC(O)Cn1c(=O)n(-c2ccc3c(c2)OCO3)c2ncccc21 (centres undefined),40,,>25,
Cc1ccc(-n2c(=O)[nH]c3cccnc32)c(C)c1,<40,,>25,
c1cnc2c(c1)nnn2-c1ccc2c(c1)OCCO2,<40,,>25,
CCCn1c(=O)n(-c2ccccc2)c2ncccc21,40,,>25,
O=c1n(CO)c2cccnc2n1-c1ccc2c(c1)OCO2,40,,>25,
CCn1c(=O)n(-c2ccc3c(c2)OCO3)c2ncccc21,<40,,>25,
C=CCn1c(=O)n(-c2cccc(C)n2)c2ncccc21,<40,,,<25
C=CC(C)n1c(=O)n(-c2ccc3c(c2)OCO3)c2ncccc21 (centres undefined),<40,,,<25
Oc1ccccc1-n1nnc2cccnc21,<40,,,<25
CCc1ccc(-n2nnc3cccnc32)cc1,<40,,,<25
CC(C)(C)Oc1nc2cccnc2n1-c1ccc2c(c1)OCO2,<40,>25,,
Fc1ccccc1Cn1nnc2cccnc21,<40,,,<25
CC(=O)Oc1ccccc1C(=O)O [ASPIRIN],<40,,,25
Cc1c(Cl)cccc1-n1nnc2cccnc21,<40,,,<25
O=c1n(CC2CO2)c2cccnc2n1-c1ccc2c(c1)OCO2 (centres undefined),<40,,,<25
O=c1[nH]c2cccnc2n1-c1ccc(F)cc1,40,,,25
CC(C)Cc1ccc(-n2c(=O)[nH]c3cccnc32)cc1,<40,,,<25
O=c1[nH]c2cccnc2n1-c1cccc2c1OCO2,<40,,,<25
O=c1n(Cc2ccccc2)c2cccnc2n1-c1ccc2c(c1)OCO2,<40,,,<25
COc1cccc(-n2c(=O)[nH]c3cccnc32)c1,<40,,,<25

Structure (SMILES),Activity (Rattus norvegicus [1]) [mm],Activity (Rattus norvegicus [2]) [mm],Activity (Rattus norvegicus [3]) [mm],Activity (Rattus norvegicus [4]) [mm]
O=c1[nH]c2cccnc2n1-c1ccc2c(c1)COCO2,<40,,,<25
O=c1[nH]c2cccnc2n1-c1cccc(F)c1,<40,,,<25
C=CCn1c(=O)n(-c2ccc3c(c2)OC2(CCCCC2)O3)c2ncccc21,40,,,<25
Cc1cccc(-n2nnc3cccnc32)n1,<40,,,<25
O=c1[nH]c2cncnc2n1-c1ccc2c(c1)OCO2,<40,,,<25
N#Cc1cccc(-n2nnc3cccnc32)c1,<40,,,<25
S=c1[nH]c2cccnc2n1-c1ccc2c(c1)OCO2,<40,,,<25
O=c1n(C2=NCCS2)c2cccnc2n1-c1ccc2c(c1)OCO2,<40,,,<25
c1cnc2c(c1)nnn2-c1ccc2c(c1)OCO2,40,,,25
NC(=O)c1cccc(-n2nnc3cccnc32)c1,<40,,,25
C=CCn1c(=O)n(-c2cccc3c2CCCC3)c2ncccc21,<40,,,<25
Clc1ccc(-n2nnc3cccnc32)cc1,<40,,,<25
Cc1oc2ccc(-n3c(=O)[nH]c4cccnc43)cc2c1C,<40,,,<25
COc1ccc(-n2nnc3cccnc32)c(OC)c1,<40,,,<25
O=c1[nH]c2cccnc2n1CCc1ccccc1,<40,,,<25
Fc1ccc(F)c(-n2nnc3cccnc32)c1,<40,,>25,
O=c1[nH]c2cccnc2n1-c1cccc(Oc2ccccc2)c1,<40,,,<25
O=c1[nH]c2cccnc2n1-c1cccc2c1CCCC2,<40,,,<25
CC(=O)Nc1ccc(-n2nnc3cccnc32)cc1,<40,,,<25
FC(F)(F)c1cccc(-n2nnc3cccnc32)c1,<40,,,25
Cc1cccc(C)c1-n1c(=O)[nH]c2cccnc21,<40,,,25
C=C(C)Cn1c(=O)n(-c2ccc3c(c2)OCO3)c2ncccc21,<40,,,<25

Structure (SMILES),Activity (Rattus norvegicus [1]) [mm],Activity (Rattus norvegicus [2]) [mm],Activity (Rattus norvegicus [3]) [mm],Activity (Rattus norvegicus [4]) [mm]
Cc1cnc2c(c1)[nH]c(=O)n2-c1ccccc1F,<40,,,25
COc1ccc(-n2c(=O)[nH]c3cccnc32)c(OC)c1,<40,,,<25
CN(C)c1ccccc1-n1nnc2cccnc21,<40,,,<25
CC(C)CCn1c(=O)n(-c2ccc3c(c2)OCO3)c2ncccc21,<40,,,<25
CC(=O)n1c(=O)n(-c2ccc3c(c2)OCO3)c2ncccc21,40,,,25
O=C(O)c1cnc2c(c1)[nH]c(=O)n2-c1ccc2c(c1)OCO2,<40,,,<25
C=CCn1c(=O)n(-c2ccc3c(c2)OCO3)c2ncncc21,<40,,,<25
Cc1cccc(C)c1-n1nnc2cccnc21,<40,,,25
Fc1cccc(-n2nnc3cccnc32)c1,<40,,,<25
COc1cc(-n2nnc3cccnc32)ccc1C,<40,,,<25
Cc1c(Cl)cccc1-n1c(=O)[nH]c2cccnc21,<40,,,<25
CCOC(=O)n1c(=O)n(-c2ccc3c(c2)OCO3)c2ncccc21,<40,,,<25
CC(=O)c1ccc(-n2nnc3cccnc32)cc1,<40,,,<25
O=c1[nH]c2cccnc2n1-c1ccccc1Cl,<40,,>25,
CN(C)c1ccccc1-n1c(=O)[nH]c2cccnc21,<40,,,<25
COC(=O)c1cnc2c(c1)nnn2-c1ccc2c(c1)OCO2,<40,,,<25
COc1ccc(-n2nnc3cccnc32)cc1,<40,,,<25
O=c1n(C/C=C/c2ccccc2)c2cccnc2n1-c1ccc2c(c1)OCO2,<40,,,<25
Cc1ccc(-n2nnc3cccnc32)cc1,<40,,,<25
C=CCn1c(=O)n(-c2cccc(Cl)c2C)c2ncccc21,<40,,,<25
O=c1[nH]c2cccnc2n1-c1cc2c(cc1[N+](=O)[O-])OCO2,<40,,,<25
CC(=O)Cn1c(=O)n(-c2ccc3c(c2)OCO3)c2ncccc21,<40,,,<25

Structure (SMILES),Activity (Rattus norvegicus [1]) [mm],Activity (Rattus norvegicus [2]) [mm],Activity (Rattus norvegicus [3]) [mm],Activity (Rattus norvegicus [4]) [mm]
CC1(C)Oc2ccc(-n3c(=O)[nH]c4cccnc43)cc2O1,<40,,,<25
c1cnc2c(c1)nnn2Cc1ccc2c(c1)OCO2,<40,,,<25
O=c1n(-c2ccc3c(c2)OCO3)c2ncccc2n1S(=O)(=O)c1ccc(F)cc1,<40,,,<25
O=c1n(-c2ccc3c(c2)OCO3)c2ncccc2n1S(=O)(=O)C(F)(F)F,<40,,,<25
O=c1[nH]c2cccnc2n1-c1ccccc1,40,>25,,
COc1cc(-n2c(=O)[nH]c3cccnc32)ccc1C,<40,,,<25
Cc1cc2c(cc1-n1nnc3cccnc31)OCO2,<40,,,<25
C=CCn1c(=O)n(-c2ccccc2F)c2ncccc21,<40,,,25
CCC1(CC)Oc2ccc(-n3nnc4cccnc43)cc2O1,<40,,,<25
Brc1ccccc1-n1nnc2cccnc21,<40,,,25
C=CCn1c(=O)n(-c2ccccc2F)c2ncncc21,<40,,,<25
O=C(O)Cn1c(=O)n(-c2ccc3c(c2)OCO3)c2ncccc21,<40,,,<25
O=c1[nH]c2cccnc2n1-c1ccc2c(c1)CCC2,<40,,,<25
Nc1ccc(-n2c(=O)[nH]c3cccnc32)cc1,<40,,>25,
O=C(O)c1cnc2c(c1)[nH]c(=O)n2-c1ccccc1F,<40,,,<25
C=CCn1c(=O)n(-c2cccc3c2OCO3)c2ncccc21,<40,,,<25
CC(=O)OCn1c(=O)n(-c2ccc3c(c2)OCO3)c2ncccc21,<40,,,<25
Fc1ccccc1-n1nnc2cc(Cl)cnc21,<40,,,25
COc1ccc(OC)c(-n2nnc3cccnc32)c1,<40,,,<25
CCC1(CC)Oc2ccc(-n3c(=O)[nH]c4cccnc43)cc2O1,<40,,,<25
CCOC(=O)Cn1c(=O)n(-c2ccc3c(c2)OCO3)c2ncccc21,<40,,,<25
